Test results: PubChem BioAssay AID1963834 (Molecular Pharmacology Branch, DTP, NCI, 2024)

Tested on: 873145-292-R-J1-PDC complex spheroid viability
Experiment: Anticancer human tumor 873145-292-R-J1-PDC patient-derived renal clear cell carcinoma cell line growth inhibition [POLQ]
Settings: for IC50: curve of first compound; for viability, T/C: stronger effect = lower value
How it was run: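 Complex spheroid viability model combining PDC tumour cells with endothelial (HUVEC) and MSC stromal cells. Novobiocin, ART-558 or RP6685 were tested singly and in combination with standard and investigational anticancer drugs. Each was titrated in half-log steps from near clinical Cmax, or from 10 microM where Cmax was unknown.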

[1] = second compound 0.0316 µM, first compound 0.0316 µM
[2] = second compound 0.0316 µM, first compound 0.1 µM
[3] = second compound 0.0316 µM, first compound 0.316 µM
[4] = second compound 0.0316 µM, first compound 1 µM
[5] = second compound 0.0316 µM, first compound 3.16 µM
[6] = second compound 0.0316 µM, first compound 10 µM
[7] = second compound 0.1 µM, first compound 0.0316 µM
[8] = second compound 0.1 µM, first compound 0.1 µM
[9] = second compound 0.1 µM, first compound 0.316 µM
[10] = second compound 0.1 µM, first compound 1 µM
[11] = second compound 0.1 µM, first compound 3.16 µM
[12] = second compound 0.1 µM, first compound 10 µM
[13] = second compound 0.316 µM, first compound 0.0316 µM
[14] = second compound 0.316 µM, first compound 0.1 µM
[15] = second compound 0.316 µM, first compound 0.316 µM
[16] = second compound 0.316 µM, first compound 1 µM
[17] = second compound 0.316 µM, first compound 3.16 µM
[18] = second compound 0.316 µM, first compound 10 µM
[19] = second compound 1 µM, first compound 0.0316 µM
[20] = second compound 1 µM, first compound 0.1 µM
[21] = second compound 1 µM, first compound 0.316 µM
[22] = second compound 1 µM, first compound 1 µM
[23] = second compound 1 µM, first compound 3.16 µM
[24] = second compound 1 µM, first compound 10 µM
[25] = second compound 3.16 µM, first compound 0.0316 µM
[26] = second compound 3.16 µM, first compound 0.1 µM
[27] = second compound 3.16 µM, first compound 0.316 µM
[28] = second compound 3.16 µM, first compound 1 µM
[29] = second compound 3.16 µM, first compound 3.16 µM
[30] = second compound 3.16 µM, first compound 10 µM
[31] = second compound 10 µM, first compound 0.0316 µM
[32] = second compound 10 µM, first compound 0.1 µM
[33] = second compound 10 µM, first compound 0.316 µM
[34] = second compound 10 µM, first compound 1 µM
[35] = second compound 10 µM, first compound 3.16 µM
[36] = second compound 10 µM, first compound 10 µM
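Further: spheroids exposed to compounds for 7 days before viability readout.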
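Wherever viability, T/C is given: luminescence signal used as surrogate for viable cell content; 100% = DMSO vehicle control viability.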

## C#Cc1c(F)ccc2cc(O)cc(-c3ncc4c(N5CC6CCC(C5)N6)nc(OCC56CCCN5CC(F)C6)nc4c3F)c12 (stereo not given) + Nc1ccc(C#CCN(C(=O)Cc2ncc(C(F)(F)F)cc2C(F)(F)F)c2ccc(F)cc2)nn1
Second compound 0.0316 µM
  IC50: > 10 µM
Second compound 0.1 µM
  IC50: > 10 µM
Second compound 0.316 µM
  IC50: > 10 µM
Second compound 1 µM
  IC50: > 10 µM
Second compound 3.16 µM
  IC50: > 10 µM
Second compound 10 µM
  IC50: > 10 µM
[1]
  viability, T/C: 102%
[2]
  viability, T/C: 103%
[3]
  viability, T/C: 106%
[4]
  viability, T/C: 99.4%
[5]
  viability, T/C: 105%
[6]
  viability, T/C: 97.1%
[7]
  viability, T/C: 115%
[8]
  viability, T/C: 110%
[9]
  viability, T/C: 96.6%
[10]
  viability, T/C: 108%
[11]
  viability, T/C: 101%
[12]
  viability, T/C: 91.9%
[13]
  viability, T/C: 101%
[14]
  viability, T/C: 106%
[15]
  viability, T/C: 84%
[16]
  viability, T/C: 104%
[17]
  viability, T/C: 98.8%
[18]
  viability, T/C: 86.7%
[19]
  viability, T/C: 108%
[20]
  viability, T/C: 93.8%
[21]
  viability, T/C: 111%
[22]
  viability, T/C: 97.9%
[23]
  viability, T/C: 104%
[24]
  viability, T/C: 95.4%
[25]
  viability, T/C: 106%
[26]
  viability, T/C: 100%
[27]
  viability, T/C: 107%
[28]
  viability, T/C: 106%
[29]
  viability, T/C: 90.7%
[30]
  viability, T/C: 101%
[31]
  viability, T/C: 108%
[32]
  viability, T/C: 98.7%
[33]
  viability, T/C: 104%
[34]
  viability, T/C: 98.2%
[35]
  viability, T/C: 109%
[36]
  viability, T/C: 105%

## C=CC(=O)N1CCN(c2nc(=O)n(-c3c(C)ccnc3C(C)C)c3nc(-c4c(O)cccc4F)c(F)cc23)C(C)C1 (stereo not given) + Nc1ccc(C#CCN(C(=O)Cc2ncc(C(F)(F)F)cc2C(F)(F)F)c2ccc(F)cc2)nn1
Second compound 0.0316 µM
  IC50: > 10 µM
Second compound 0.1 µM
  IC50: > 10 µM
Second compound 0.316 µM
  IC50: > 10 µM
Second compound 1 µM
  IC50: > 10 µM
Second compound 3.16 µM
  IC50: > 10 µM
Second compound 10 µM
  IC50: > 10 µM
[1]
  viability, T/C: 112%
[2]
  viability, T/C: 105%
[3]
  viability, T/C: 106%
[4]
  viability, T/C: 120%
[5]
  viability, T/C: 132%
[6]
  viability, T/C: 134%
[7]
  viability, T/C: 111%
[8]
  viability, T/C: 110%
[9]
  viability, T/C: 117%
[10]
  viability, T/C: 124%
[11]
  viability, T/C: 119%
[12]
  viability, T/C: 128%
[13]
  viability, T/C: 116%
[14]
  viability, T/C: 117%
[15]
  viability, T/C: 103%
[16]
  viability, T/C: 126%
[17]
  viability, T/C: 135%
[18]
  viability, T/C: 123%
[19]
  viability, T/C: 107%
[20]
  viability, T/C: 110%
[21]
  viability, T/C: 107%
[22]
  viability, T/C: 129%
[23]
  viability, T/C: 136%
[24]
  viability, T/C: 126%
[25]
  viability, T/C: 112%
[26]
  viability, T/C: 116%
[27]
  viability, T/C: 113%
[28]
  viability, T/C: 131%
[29]
  viability, T/C: 135%
[30]
  viability, T/C: 139%
[31]
  viability, T/C: 126%
[32]
  viability, T/C: 113%
[33]
  viability, T/C: 119%
[34]
  viability, T/C: 132%
[35]
  viability, T/C: 134%
[36]
  viability, T/C: 142%

## CCc1cc2c(N3CCc4c(cc(Cn5ccnc5)cc4-c4cn(C)nc4C(F)(F)F)C3=O)cc(C)nc2c(OC)n1 + Nc1ccc(C#CCN(C(=O)Cc2ncc(C(F)(F)F)cc2C(F)(F)F)c2ccc(F)cc2)nn1
Second compound 0.0316 µM
  IC50: > 10 µM
Second compound 0.1 µM
  IC50: > 10 µM
Second compound 0.316 µM
  IC50: > 10 µM
Second compound 1 µM
  IC50: > 10 µM
Second compound 3.16 µM
  IC50: > 10 µM
Second compound 10 µM
  IC50: > 10 µM
[1]
  viability, T/C: 92.6%
[2]
  viability, T/C: 110%
[3]
  viability, T/C: 101%
[4]
  viability, T/C: 91.2%
[5]
  viability, T/C: 80.6%
[6]
  viability, T/C: 75.2%
[7]
  viability, T/C: 103%
[8]
  viability, T/C: 100%
[9]
  viability, T/C: 77.9%
[10]
  viability, T/C: 93%
[11]
  viability, T/C: 79.2%
[12]
  viability, T/C: 68.6%
[13]
  viability, T/C: 94.4%
[14]
  viability, T/C: 109%
[15]
  viability, T/C: 74%
[16]
  viability, T/C: 90.7%
[17]
  viability, T/C: 95.8%
[18]
  viability, T/C: 73.6%
[19]
  viability, T/C: 101%
[20]
  viability, T/C: 92.5%
[21]
  viability, T/C: 91.9%
[22]
  viability, T/C: 95.8%
[23]
  viability, T/C: 77.6%
[24]
  viability, T/C: 76.8%
[25]
  viability, T/C: 97.9%
[26]
  viability, T/C: 104%
[27]
  viability, T/C: 97.6%
[28]
  viability, T/C: 93%
[29]
  viability, T/C: 85.7%
[30]
  viability, T/C: 78.9%
[31]
  viability, T/C: 105%
[32]
  viability, T/C: 101%
[33]
  viability, T/C: 98%
[34]
  viability, T/C: 97.3%
[35]
  viability, T/C: 89%
[36]
  viability, T/C: 69.2%

## CCc1cc2c(N3CCc4c(cc(Cn5ccnc5)cc4-c4cn(C)nc4C(F)(F)F)C3=O)ccnc2c(OC)n1 + Nc1ccc(C#CCN(C(=O)Cc2ncc(C(F)(F)F)cc2C(F)(F)F)c2ccc(F)cc2)nn1
Second compound 0.0316 µM
  IC50: > 10 µM
Second compound 0.1 µM
  IC50: > 10 µM
Second compound 0.316 µM
  IC50: > 10 µM
Second compound 1 µM
  IC50: > 10 µM
Second compound 3.16 µM
  IC50: > 10 µM
Second compound 10 µM
  IC50: > 10 µM
[1]
  viability, T/C: 97.9%
[2]
  viability, T/C: 106%
[3]
  viability, T/C: 87.8%
[4]
  viability, T/C: 89.5%
[5]
  viability, T/C: 81.3%
[6]
  viability, T/C: 80.9%
[7]
  viability, T/C: 98.7%
[8]
  viability, T/C: 110%
[9]
  viability, T/C: 82.9%
[10]
  viability, T/C: 92.8%
[11]
  viability, T/C: 102%
[12]
  viability, T/C: 69.5%
[13]
  viability, T/C: 101%
[14]
  viability, T/C: 111%
[15]
  viability, T/C: 82.3%
[16]
  viability, T/C: 82.5%
[17]
  viability, T/C: 101%
[18]
  viability, T/C: 70.8%
[19]
  viability, T/C: 92.7%
[20]
  viability, T/C: 89.5%
[21]
  viability, T/C: 79.6%
[22]
  viability, T/C: 87.6%
[23]
  viability, T/C: 94.3%
[24]
  viability, T/C: 72.2%
[25]
  viability, T/C: 99.8%
[26]
  viability, T/C: 96.7%
[27]
  viability, T/C: 82.2%
[28]
  viability, T/C: 99.6%
[29]
  viability, T/C: 80.9%
[30]
  viability, T/C: 74.1%
[31]
  viability, T/C: 106%
[32]
  viability, T/C: 96.5%
[33]
  viability, T/C: 97.8%
[34]
  viability, T/C: 104%
[35]
  viability, T/C: 84.9%
[36]
  viability, T/C: 77.7%

## COc1cc2cc(C(=O)CCC(=O)O)sc2cc1OC + Nc1ccc(C#CCN(C(=O)Cc2ncc(C(F)(F)F)cc2C(F)(F)F)c2ccc(F)cc2)nn1
Second compound 0.0316 µM
  IC50: > 10 µM
Second compound 0.1 µM
  IC50: > 10 µM
Second compound 0.316 µM
  IC50: > 10 µM
Second compound 1 µM
  IC50: > 10 µM
Second compound 3.16 µM
  IC50: > 10 µM
Second compound 10 µM
  IC50: > 10 µM
[1]
  viability, T/C: 94.6%
[2]
  viability, T/C: 116%
[3]
  viability, T/C: 95.8%
[4]
  viability, T/C: 97.8%
[5]
  viability, T/C: 104%
[6]
  viability, T/C: 102%
[7]
  viability, T/C: 106%
[8]
  viability, T/C: 115%
[9]
  viability, T/C: 92.3%
[10]
  viability, T/C: 107%
[11]
  viability, T/C: 121%
[12]
  viability, T/C: 91.5%
[13]
  viability, T/C: 104%
[14]
  viability, T/C: 116%
[15]
  viability, T/C: 96.8%
[16]
  viability, T/C: 99.3%
[17]
  viability, T/C: 97.2%
[18]
  viability, T/C: 89.8%
[19]
  viability, T/C: 104%
[20]
  viability, T/C: 105%
[21]
  viability, T/C: 112%
[22]
  viability, T/C: 105%
[23]
  viability, T/C: 104%
[24]
  viability, T/C: 92.5%
[25]
  viability, T/C: 112%
[26]
  viability, T/C: 104%
[27]
  viability, T/C: 91.8%
[28]
  viability, T/C: 106%
[29]
  viability, T/C: 103%
[30]
  viability, T/C: 103%
[31]
  viability, T/C: 113%
[32]
  viability, T/C: 105%
[33]
  viability, T/C: 119%
[34]
  viability, T/C: 110%
[35]
  viability, T/C: 103%
[36]
  viability, T/C: 105%
